In brackets after ≈: the same amount, converted by molar mass.
Columns and labels:
Format in all cases: functional
Details in all cases: time 20-24 hrs
Staphylococcus aureus [1] = assay: Antimicrobial activity against antibiotic-resistant Staphylococcus aureus ATCC 33591 assessed as inhibition of visible growth measured after 20 to 24 hrs incubation by CLSI method
Bacillus subtilis = assay: Antimicrobial activity against antibiotic-resistant Bacillus subtilis ATCC 6623 assessed as inhibition of visible growth measured after 20 to 24 hrs incubation by CLSI method
Staphylococcus aureus [2] = assay: Antimicrobial activity against Staphylococcus aureus ATCC 25923 assessed as inhibition of visible growth measured after 20 to 24 hrs incubation by CLSI method
Staphylococcus aureus [3] = assay: Antimicrobial activity against antibiotic-resistant Staphylococcus aureus ATCC BAA-2312 assessed as inhibition of visible growth measured after 20 to 24 hrs incubation by CLSI method
Enterococcus faecalis [4] = assay: Antimicrobial activity against antibiotic-susceptible Enterococcus faecalis ATCC 29212 assessed as inhibition of visible growth measured after 20 to 24 hrs incubation by CLSI method
Staphylococcus aureus [5] = assay: Antimicrobial activity against antibiotic-resistant Staphylococcus aureus ATCC 33592 assessed as inhibition of visible growth measured after 20 to 24 hrs incubation by CLSI method
[6] = test system: Staphylococcus epidermidis; assay: Antimicrobial activity against antibiotic-resistant Staphylococcus epidermidis ATCC 700296 assessed as inhibition of visible growth measured after 20 to 24 hrs incubation by CLSI method
Staphylococcus aureus [7] = assay: Antimicrobial activity against antibiotic-resistant Staphylococcus aureus ATCC 700699 assessed as inhibition of visible growth measured after 20 to 24 hrs incubation by CLSI method
Enterococcus faecalis [8] = assay: Antimicrobial activity against antibiotic-resistant Enterococcus faecalis ATCC 51299 assessed as inhibition of visible growth measured after 20 to 24 hrs incubation by CLSI method
Enterococcus faecium = assay: Antimicrobial activity against antibiotic-resistant Enterococcus faecium ATCC 700221 assessed as inhibition of visible growth measured after 20 to 24 hrs incubation by CLSI method

Row | SMILES | MIC (Staphylococcus aureus [1]) [µg/mL] | MIC (Bacillus subtilis) [µg/mL] | MIC (Staphylococcus aureus [2]) [µg/mL] | MIC (Staphylococcus aureus [3]) [µg/mL] | MIC (Enterococcus faecalis [4]) [µg/mL] | MIC (Staphylococcus aureus [5]) [µg/mL] | MIC [6] [µg/mL] | MIC (Staphylococcus aureus [7]) [µg/mL] | MIC (Enterococcus faecalis [8]) [µg/mL] | MIC (Enterococcus faecium) [µg/mL]
1 | O=C(O)c1ccc(-n2cc(CNc3cccc(Cl)c3)c(-c3ccc(F)cc3)n2)cc1 | 4 (≈ 9.48 µM) | 4 (≈ 9.48 µM) | 8 (≈ 19 µM) | 4 (≈ 9.48 µM) | 32 (≈ 75.9 µM) | 16 (≈ 37.9 µM) | 16 (≈ 37.9 µM) | 8 (≈ 19 µM) | 32 (≈ 75.9 µM) | 32 (≈ 75.9 µM)
2 | O=C(O)c1ccc(-n2cc(CNc3ccc(F)cc3)c(-c3ccc(F)cc3)n2)cc1 | 16 (≈ 39.5 µM) | 16 (≈ 39.5 µM) | 16 (≈ 39.5 µM) | 32 (≈ 78.9 µM) | > 32 | 16 (≈ 39.5 µM) | 32 (≈ 78.9 µM) | 16 (≈ 39.5 µM) | > 32 | > 32
3 | O=C(O)c1ccc(-n2cc(CNc3ccc(F)c(Cl)c3)c(-c3cccc(F)c3)n2)cc1 | 8 (≈ 18.2 µM) | 4 (≈ 9.09 µM) | 16 (≈ 36.4 µM) | 8 (≈ 18.2 µM) | 32 (≈ 72.8 µM) | 16 (≈ 36.4 µM) | 16 (≈ 36.4 µM) | 16 (≈ 36.4 µM) | 32 (≈ 72.8 µM) | 32 (≈ 72.8 µM)
4 | O=C(O)c1ccc(-n2cc(CNc3ccc(Br)c(Cl)c3)c(-c3cccc(F)c3)n2)cc1 | 1 (≈ 2 µM) | 1 (≈ 2 µM) | – | 1 (≈ 2 µM) | 8 (≈ 16 µM) | 1 (≈ 2 µM) | 4 (≈ 7.99 µM) | 2 (≈ 3.99 µM) | 4 (≈ 7.99 µM) | 4 (≈ 7.99 µM)
5 | O=C(O)c1ccc(-n2cc(CNc3ccc(Cl)c(C(F)(F)F)c3)c(-c3ccc(F)cc3)n2)cc1 | 1 (≈ 2.04 µM) | 1 (≈ 2.04 µM) | 2 (≈ 4.08 µM) | 2 (≈ 4.08 µM) | 8 (≈ 16.3 µM) | 2 (≈ 4.08 µM) | 4 (≈ 8.17 µM) | 1 (≈ 2.04 µM) | 8 (≈ 16.3 µM) | 2 (≈ 4.08 µM)
6 | Cc1cc(NCc2cn(-c3ccc(C(=O)O)cc3)nc2-c2ccc(F)cc2)ccc1Br | 2 (≈ 4.16 µM) | 1 (≈ 2.08 µM) | 4 (≈ 8.33 µM) | 2 (≈ 4.16 µM) | 16 (≈ 33.3 µM) | 4 (≈ 8.33 µM) | 4 (≈ 8.33 µM) | 2 (≈ 4.16 µM) | 8 (≈ 16.7 µM) | 8 (≈ 16.7 µM)
7 | O=C(O)c1ccc(-n2cc(CNc3ccc(F)c(Cl)c3)c(-c3ccc(F)cc3)n2)cc1 | 2 (≈ 4.55 µM) | 2 (≈ 4.55 µM) | 8 (≈ 18.2 µM) | 4 (≈ 9.09 µM) | > 32 | 8 (≈ 18.2 µM) | 32 (≈ 72.8 µM) | 8 (≈ 18.2 µM) | > 32 | 16 (≈ 36.4 µM)
8 | O=C(O)c1ccc(-n2cc(CNc3cccc(F)c3)c(-c3ccc(F)cc3)n2)cc1 | 16 (≈ 39.5 µM) | 8 (≈ 19.7 µM) | 16 (≈ 39.5 µM) | 32 (≈ 78.9 µM) | > 32 | 16 (≈ 39.5 µM) | 32 (≈ 78.9 µM) | 16 (≈ 39.5 µM) | > 32 | > 32
9 | O=C(O)c1ccc(-n2cc(CNc3ccc(Br)c(C(F)(F)F)c3)c(-c3ccc(F)cc3)n2)cc1 | 0.5 (≈ 0.936 µM) | 1 (≈ 1.87 µM) | 2 (≈ 3.74 µM) | 1 (≈ 1.87 µM) | 4 (≈ 7.49 µM) | 2 (≈ 3.74 µM) | 4 (≈ 7.49 µM) | 1 (≈ 1.87 µM) | 4 (≈ 7.49 µM) | 2 (≈ 3.74 µM)
10 | O=C(O)c1ccc(-n2cc(CNc3ccc(Oc4ccccc4)cc3)c(-c3ccc(F)c(F)c3)n2)cc1 | 1 (≈ 2.01 µM) | 1 (≈ 2.01 µM) | 1 (≈ 2.01 µM) | 1 (≈ 2.01 µM) | 4 (≈ 8.04 µM) | 2 (≈ 4.02 µM) | 2 (≈ 4.02 µM) | 2 (≈ 4.02 µM) | 4 (≈ 8.04 µM) | 2 (≈ 4.02 µM)
11 | O=C(O)c1ccc(-n2cc(CNc3ccc(C(F)(F)F)cc3)c(-c3ccc(F)c(F)c3)n2)cc1 | 1 (≈ 2.11 µM) | 1 (≈ 2.11 µM) | 2 (≈ 4.22 µM) | 2 (≈ 4.22 µM) | > 32 | 2 (≈ 4.22 µM) | 4 (≈ 8.45 µM) | 4 (≈ 8.45 µM) | > 32 | 8 (≈ 16.9 µM)
12 | O=C(O)c1ccc(-n2cc(CNc3cc(Cl)cc(Cl)c3)c(-c3cccc(F)c3)n2)cc1 | 1 (≈ 2.19 µM) | 1 (≈ 2.19 µM) | 2 (≈ 4.38 µM) | 1 (≈ 2.19 µM) | 8 (≈ 17.5 µM) | 1 (≈ 2.19 µM) | – | 4 (≈ 8.77 µM) | – | –

Reference: ChEMBL document CHEMBL5365500, “Development and Antibacterial Properties of 4-[4-(Anilinomethyl)-3-phenylpyrazol-1-yl]benzoic Acid Derivatives as Fatty Acid Biosynthesis Inhibitors” (J Med Chem, 2023)
